# Source: patent publication US20030134859A1 (SANKYO COMPANY, LIMITED, priority 2000, published 2003)
# What was measured:
# KK mice = assay: Plasma glucose lowering effects in hyperglycemic KK mice; type: in vivo, mouse; conditions: male KK mice, 0.3 weight % in food for 1 week
# Method: Unless otherwise described, mice were bred individually, and food and water were taken ad libitum in the following experiments. For this, F2 food powder (Funahashi Farm) was used. Plasma glucose level in the blood collected from the tail vein of a mouse with a heparin-coated glass tube was determined with the Glucoloader (A&T Corp.).
# Male KK mice (purchased from Clea Japan, Inc) were purchased at 6 weeks old and were bred until 19 weeks old through an acclimatisation period and test period. The plasma glucose level of each mouse was determined and the occurrence of hyperglycemia in the mice was confrrmed. The animals with a plasma glucose level of 350 mg/dl and higher were screened and the animals for use in the experiment were selected. The selected mice were divided into a control group and a test compound treated group (n=6/group) matched for body weights and plasma glucose levels.
# In the control group, conventional food powder was given-to each mouse, while in the test compound-treated group, the food comprising the food powder (F2) mixed with the test compound (final concentration: 0.3 weight %) was given to each mouse. The mice in both groups were bred for 1 week.
# One week after the treatment, the blood glucose level was determined.
# lenses = assay: Cataract assessment: opacity of cultured lenses exposed to hydrogen peroxide; set-up: species or system rat; conditions: 100 nM test compound with 5 mM hydrogen peroxide; 24 hr; clear: 0, slightly opaque: 1, moderately opaque: 2
# Method: The lenses were isolated from Sprague-Dawley rats (male, purchased from SLC Japan), and the lenses were pre-cultured in a medium (Medium-199: GIBCO BRL) for 3 hr and the lenses maintaining transparency were selected and used in the experiment. The crystalline lenses were cultured for 24 hr in the following 3 groups; 1) in Medium-199 (3 mL), 2) in Medium-199 (3 mL) containing hydrogen peroxide (final concentration: 5 mM) and 3) in Medium-199 (3 mL) containing the test compound (final concentration: 100 nM), DMSO (final concentration: 0.1% v/v) and hydrogen peroxide (final concentration: 5 mM). After finalising culturing, the opacity of the lens was scored based on the following criteria: clear: 0, slightly opaque: 1, moderately opaque: 2. Thus the improving effect of the test compound on cataracts was assessed.
# ABCA1 mRNA = assay: Quantitative analysis of ABCA1 mRNA (TaqMan PCR) in RAW264.7 cells; type: cell-based, mouse; conditions: 100 nM test compound, 24 hr, normalised to β-actin, DMSO = 100
# Method: The mouse monocyte/macrophage cell line, RAW264.7 (ATCC TIB71) was purchased from Dainippon Pharmaceutical Co., Ltd. As the medium, the Dulbecco's modified Eagle's medium (DMEM medium; GIBCO, Cat. No. 11995-040) containing bovine fetal serum (the final concentration: 10% (v/v), MOREGATE, lot No. 474030), penicillin G (the final concentration: 50 units/mL, GIBCO) and streptomycin (the final concentration: 20 μg/mL, GIBCO) was used.
# The culture of RAW264.7 cells was carried out in a CO2 incubator (37° C., 95% R.H., 5% of CO2).
# A 2 ml volume of RAW264.7 cells suspension (1×10^6 cells/mL) was plated in each well of a 6-well plate (2×10^6 cells/well) and the cells were incubated for 2 hr in a CO2 incubator. The test compounds dissolved in DMSO were diluted with DMEM medium by 20 times, and were added to the wells at a volume of 4 μL/well (final concentration of the test compound: 100 nM). As the control, the DMSO solution was diluted with the DMEM medium by 20 times, and was added to the wells at the volume of 4 μL/well. After the cells were cultured in a CO2 incubator for 24 hr, the medium was removed and the total RNA was purified by using an RNeasy Mini Kit (Qiagen), according to the protocol attached. The concentration of the RNA in the samples obtained was calculated from absorbance at 260 nm (A260=1=40 μg/ml). Six (6) μg of total RNA were diluted with RNAase-free water so as to be 22.6 μL, which was heated at 65° C. for 10 min, and then was cooled on ice. The RNA in the solution was used as the template, and the cDNA was synthesized by using a First-strand cDNA Synthesis Kit (Amersham Pharmacia Biotech). In this reaction, a solution was prepared having the following composition and was reacted at 37° C. for 1 hr.
# After the reaction, 3 μL of soution were collected from each of the reaction mixtures of the test compound-treated cell samples and that of the control cell samples. The mixed solution was used as the standard solution. The standard solution and each reaction solution were purified with a Chroma Spin-100+DEPC-H2O Column according to the protocol attached, and they were used as the template for TaqMan PCR (Template). In order to draw the calibration curve, the standard solution was diluted by every 5 times for 5 steps and each solution was used for TaqMan PCR. TaqMan PCR was carried out in ABCA1 and β-actin. As Primers for use in the TaqMan PCR, 4 oligonucleotides (abca1 forward (S3), abca1 reverse (AS3), β-actin forward (S4) and β-actin reverse (AS4)) were designed which are shown in sequences No. 5 to 8 in the sequence table described later. The synthesis and purification of these 4 oligomers was ordered from Amersham Pharmacia Biotech Co.
# As FAM-TAMRA labelled TaqMan Probe, 2 kinds of oligonucleotides (abca1 (p1) and β-actin (p2)) were designed and were ordered from Applied Biosystems Co. to synthesize and purify.
# The following reaction mixture of ABCA1 or β-actin was divided into 2 wells of a MicroAmp Optical 96-well Reaction Plate (Applied Biosystem Co.). TaqMan Universal PCR Master Mix was purchased from Applied Biosystem Co.
# The plate was covered with a MicroAmp Optical Cap (Applied Biosystems Co.), and TaqMan PCR was carried out by using an ABI PRISM 7,700 Sequence Detection System (Applied Biosystem Co.) under the following conditions:
# An analysis was made according to the procedures described in the manual of Sequence Detection Software (Applied Biosystem Co.) and the increased rate of ABCA1 mRNA due to the test compound was calculated based on the following equation.
# A: Amount of the ABCA1 mRNA in the presence of the test compound
# B: Amount of the β-actin mRNA in the presence of the test compound
# C: Amount of the ABCA1 mRNA in the presence of DMSO
# D: Amount of the β-actin mRNA in the presence of DMSO
# Increase Rate (%) of ABCA1 mRNA=(A/B)/(C/D)×100
smiles,measurement,setting,value
"O=C(Nc1ccc(OC(F)(F)F)cc1)c1cc([N+](=O)[O-])ccc1Cl [Example 18, N-(4-Trifluoromethyloxyphenyl)-(2-chloro-5-nitrophenyl)carboxamide]",plasma glucose on Day 7,KK mice; n=6/group,315 ± 14
same,% of inhibition (vs. control),KK mice; plasma glucose on Day 7,55%
"Cc1c(C)c2c(c(C)c1O)C(=O)CC(C)(COc1ccc(NC(=O)c3cc([N+](=O)[O-])ccc3Cl)cc1)O2 (centres unmarked) [Example 92, N-[4-(6-Hydroxy-2,5,7,8-tetramethyl-4-oxochroman-2-ylmethoxy)phenyl]-(2-chloro-5-nitrophenyl)carboxamide]",opacity of the lens (average score),lenses,1.0
"CCN(CC)c1ccc(-c2ccc(NC(=O)c3cc([N+](=O)[O-])ccc3Cl)cc2)cc1 [Example 217, N-[4-[4-(N,N-Diethylamino)phenyl]phenyl]-(2-chloro-5-nitrophenyl)carboxamide]",Rate of Increase (%) of ABCA1 mRNA,ABCA1 mRNA,187.0%
"CCN(C)c1ccc(-c2ccc(NC(=O)c3cc([N+](=O)[O-])ccc3Cl)cc2)cc1 [Example 218, N-[4-[4-(N-Ethyl-N-methylamino)phenyl]phenyl]-(2-chloro-5-nitrophenyl)carboxamide]",Rate of Increase (%) of ABCA1 mRNA,ABCA1 mRNA,190.0%
